# Experimental data taken from ChEMBL document CHEMBL5042519, “Design and synthesis of marine sesterterpene analogues as novel estrogen receptor α degraders for breast cancer treatment” (Eur J Med Chem, 2022).
# Activity calls are given as the source filed them. The rule behind the calls is not given here.
# Columns and labels:
# MCF7 [1] = test: Antiproliferative activity against human MCF7 cells assessed as reduction in cell viability after 48 hrs by MTT assay; assay type: functional, cell-based; details: MCF7, 48 h
# [2] = Selectivity index, ratio of IC50 for antiproliferative activity against human MCF-10A cells to IC50 for antiproliferative activity against human MDA-MB-231 cells by MTT assay; assay type: toxicity, cell-based; details: MCF-10A cells versus MDA-MB-231 cells, read-out: Ratio IC50
# MDA-MB-231 = test: Antiproliferative activity against human MDA-MB-231 cells assessed as reduction in cell viability after 48 hrs by MTT assay; details: MDA-MB-231, 48 h
# MCF7 [3] = test: Antiproliferative activity against human MCF7/ADR cells assessed as reduction in cell viability after 48 hrs by MTT assay; assay type: functional, cell-based; details: MCF7, 48 h
# [4] = Resistance index, ratio of IC50 for antiproliferative activity against human MCF7/ADR cells to IC50 for antiproliferative activity against human MCF7 cells; assay type: functional
# [5] = Metabolic stability in rat plasma assessed as parent compound remaining incubated for 60 mins in presence of NADPH by UPLC-MS analysis; assay type: ADME, cell-free; details: read-out: Stability
# [6] = biological target: T1, Estrogen receptor (Homo sapiens) (UniProt P03372); test: Induction of ERalpha degradation in human MCF7 cells assessed as decrease in ERalpha protein expression at 1 uM incubated for 24 hrs by Western blot analysis; assay type: cell-based
# T1 sequence (whole entry): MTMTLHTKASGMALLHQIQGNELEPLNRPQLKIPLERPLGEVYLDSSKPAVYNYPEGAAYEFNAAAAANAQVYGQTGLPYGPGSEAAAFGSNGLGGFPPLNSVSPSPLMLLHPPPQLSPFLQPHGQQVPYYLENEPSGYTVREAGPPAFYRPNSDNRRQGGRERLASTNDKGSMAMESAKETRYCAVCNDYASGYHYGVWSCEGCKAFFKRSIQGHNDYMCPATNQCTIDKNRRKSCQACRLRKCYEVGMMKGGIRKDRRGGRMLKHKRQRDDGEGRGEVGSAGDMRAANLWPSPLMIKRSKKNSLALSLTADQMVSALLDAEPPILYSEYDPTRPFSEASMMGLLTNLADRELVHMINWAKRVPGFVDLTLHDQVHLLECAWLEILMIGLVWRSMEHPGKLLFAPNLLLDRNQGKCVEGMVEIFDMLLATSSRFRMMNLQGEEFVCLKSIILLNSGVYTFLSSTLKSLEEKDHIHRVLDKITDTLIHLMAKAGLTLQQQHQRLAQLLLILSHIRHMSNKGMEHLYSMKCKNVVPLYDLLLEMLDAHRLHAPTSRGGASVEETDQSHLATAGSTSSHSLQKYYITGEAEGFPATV
# [7] = Metabolic stability in rat liver microsomes assessed as assessed as intrinsic clearance incubated for 60 mins in presence of NADPH by UPLC-MS analysis; assay type: ADME, Microsome; details: read-out: CLH
# [8] = Antiproliferative activity against human MCF-10A cells assessed as reduction in cell viability after 48 hrs by MTT assay; assay type: toxicity, cell-based
smiles,measurement,setting,value
CC(C)=C/C=C\[C@H](C)[C@H]1CC[C@]2(C)C[C@@H]3C(C)=CC(=O)[C@H]3/C(C=O)=C\C[C@@H]12,IC50,MCF7 [1],3.92 µM
same,selectivity ratio,[2],0.94
same,IC50,MDA-MB-231,2.1 µM
same,IC50,MCF7 [3],2.48 µM
same,Ratio IC50,[4],0.63
same,remaining at 1 h,[5],97%
same,Activity,[6],Active
same,microsomal CLint,[7],14.5 µL/min/mg
same,IC50 at 48 h,[8],3.68 µM
